Results: ChEMBL document CHEMBL3885861, “Open TG-GATES”

Organism: Rattus norvegicus
Assay: Open TG-GATES - Regimen: Daily Repeat
Assay type: toxicity, organism-based, Sprague-Dawley
Design: regimen Daily Repeat, gender Male, age 6 weeks
Conditions: in vivo, po, route gavage; for APTT / Bas / Eos / Fbg / Hb / Ht / Lym / MCH / MCHC / MCV / Mono / Neu / PT / Plat / RBC / Ret / WBC: tissue Blood; for KIDNEY_L / KIDNEY_R / KIDNEY_TOTAL: tissue Kidney; for LIVER: tissue Liver; for A/G / ALP / ALT / AST / BUN / CRE / Ca / Cl / DBIL / GLC / IP / K / LDH / Na / PL / RALB / TBIL / TC / TG / TP / gamma-GTP: tissue Plasma
[1] = 1000 mg/kg, 72 h, dose level Middle, time 3 day
[2] = 1000 mg/kg, […], dose level Middle, time 7 day
[3] = 1000 mg/kg, […], dose level Middle, time 14 day
[4] = 1000 mg/kg, […], dose level Middle, time 28 day
[5] = 2000 mg/kg, 72 h, dose level High, time 3 day
[6] = 2000 mg/kg, […], dose level High, time 7 day
[7] = 2000 mg/kg, […], dose level High, time 14 day
[8] = 2000 mg/kg, […], dose level High, time 28 day

## COc1ccc(O)c(C(C)(C)C)c1.COc1ccc(O)cc1C(C)(C)C [BUTYLATED HYDROXYANISOLE]
[1]
  TERMINAL_BW: 219.1 g
  APTT: 16.1 s
  Bas: 0.3%
  Eos: 0.7%
  Fbg: 310.6 mg/dL
  Hb: 12.6 g/dL
  Ht: 36.7%
  Lym: 75.6%
  MCH: 20.5 pg
  MCHC: 34.3%
  MCV: 59.6 fL
  Mono: 3.1%
  Neu: 19.4%
  PT: 10.9 s
  Plat: 134.7 x10_4/uL
  RBC: 615.6 x10_4/ul
  Ret: 3.6%
  WBC: 130.3 x10_2/uL
  KIDNEY_L: 1 g
  KIDNEY_R: 0.9 g
  KIDNEY_TOTAL: 1.9 g
  LIVER: 15 g
  A/G: 0.8
  ALP: 1334 IU/L
  ALT: 44.6 IU/L
  AST: 65.6 IU/L
  BUN: 16 mg/dL
  CRE: 0.2 mg/dL
  Ca: 11.5 mg/dL
  Cl: 104.6 meq/L
  DBIL: 0.028 mg/dL
  GLC: 171.4 mg/dL
  IP: 7 mg/dL
  K: 3.9 meq/L
  LDH: 71.8 IU/L
  Na: 142.4 meq/L
  PL: 200.8 mg/dL
  RALB: 2.6 g/dL
  TBIL: 0.092 mg/dL
  TC: 115.2 mg/dL
  TG: 76.2 mg/dL
  TP: 5.9 g/dL
  gamma-GTP: 1.6 IU/L
[2]
  TERMINAL_BW: 247 g
  APTT: 16.2 s
  Bas: 0.3%
  Eos: 0.6%
  Fbg: 341 mg/dL
  Hb: 13.3 g/dL
  Ht: 38.5%
  Lym: 79%
  MCH: 20.6 pg
  MCHC: 34.5%
  MCV: 59.7 fL
  Mono: 2%
  Neu: 17.1%
  PT: 11.6 s
  Plat: 156.6 x10_4/uL
  RBC: 645.8 x10_4/ul
  Ret: 5.7%
  WBC: 119.3 x10_2/uL
  KIDNEY_L: 1 g
  KIDNEY_R: 1 g
  KIDNEY_TOTAL: 2 g
  LIVER: 13.6 g
  A/G: 0.8
  ALP: 1105 IU/L
  ALT: 35.6 IU/L
  AST: 56.8 IU/L
  BUN: 16.4 mg/dL
  CRE: 0.2 mg/dL
  Ca: 11.3 mg/dL
  Cl: 105.4 meq/L
  DBIL: 0.024 mg/dL
  GLC: 171.8 mg/dL
  IP: 6.8 mg/dL
  K: 3.7 meq/L
  LDH: 62.8 IU/L
  Na: 143 meq/L
  PL: 188.2 mg/dL
  RALB: 2.8 g/dL
  TBIL: 0.054 mg/dL
  TC: 103.4 mg/dL
  TG: 144.4 mg/dL
  TP: 6.4 g/dL
  gamma-GTP: 1.2 IU/L
[3]
  TERMINAL_BW: 309.8 g
  APTT: 19.6 s
  Bas: 0.3%
  Eos: 0.7%
  Fbg: 334.2 mg/dL
  Hb: 13.6 g/dL
  Ht: 39.6%
  Lym: 76.3%
  MCH: 19.9 pg
  MCHC: 34.3%
  MCV: 57.9 fL
  Mono: 2.4%
  Neu: 19.6%
  PT: 11.8 s
  Plat: 132.4 x10_4/uL
  RBC: 684.8 x10_4/ul
  Ret: 3.9%
  WBC: 105.1 x10_2/uL
  KIDNEY_L: 1.2 g
  KIDNEY_R: 1.1 g
  KIDNEY_TOTAL: 2.3 g
  LIVER: 18 g
  A/G: 0.7
  ALP: 1071.8 IU/L
  ALT: 36.8 IU/L
  AST: 56.8 IU/L
  BUN: 19 mg/dL
  CRE: 0.2 mg/dL
  Ca: 11.1 mg/dL
  Cl: 105 meq/L
  DBIL: 0.022 mg/dL
  GLC: 169 mg/dL
  IP: 5.9 mg/dL
  K: 3.8 meq/L
  LDH: 50 IU/L
  Na: 143.6 meq/L
  PL: 199.8 mg/dL
  RALB: 2.8 g/dL
  TBIL: 0.046 mg/dL
  TC: 103 mg/dL
  TG: 164.8 mg/dL
  TP: 6.6 g/dL
  gamma-GTP: 1.8 IU/L
[4]
  TERMINAL_BW: 393.4 g
  APTT: 20.3 s
  Bas: 0.4%
  Eos: 1%
  Fbg: 290.2 mg/dL
  Hb: 14.7 g/dL
  Ht: 41.5%
  Lym: 77.6%
  MCH: 19.5 pg
  MCHC: 35.4%
  MCV: 55 fL
  Mono: 1.8%
  Neu: 18.4%
  PT: 12.1 s
  Plat: 119.1 x10_4/uL
  RBC: 754.6 x10_4/ul
  Ret: 2.2%
  WBC: 117.9 x10_2/uL
  KIDNEY_L: 1.3 g
  KIDNEY_R: 1.3 g
  KIDNEY_TOTAL: 2.6 g
  LIVER: 20 g
  A/G: 0.7
  ALP: 853 IU/L
  ALT: 35.6 IU/L
  AST: 55.6 IU/L
  BUN: 17.4 mg/dL
  CRE: 0.3 mg/dL
  Ca: 11.2 mg/dL
  Cl: 104.4 meq/L
  DBIL: 0.018 mg/dL
  GLC: 183.8 mg/dL
  IP: 5.8 mg/dL
  K: 3.4 meq/L
  LDH: 58.2 IU/L
  Na: 145.2 meq/L
  PL: 161 mg/dL
  RALB: 2.7 g/dL
  TBIL: 0.058 mg/dL
  TC: 88.4 mg/dL
  TG: 115.4 mg/dL
  TP: 6.5 g/dL
  gamma-GTP: 1.4 IU/L
[5]
  TERMINAL_BW: 199.9 g
  APTT: 18.9 s
  Bas: 0.2%
  Eos: 0.7%
  Fbg: 288 mg/dL
  Hb: 13.9 g/dL
  Ht: 40.3%
  Lym: 78.1%
  MCH: 20.7 pg
  MCHC: 34.6%
  MCV: 59.8 fL
  Mono: 2.8%
  Neu: 17.5%
  PT: 11.8 s
  Plat: 152.4 x10_4/uL
  RBC: 673.2 x10_4/ul
  Ret: 2.1%
  WBC: 93.2 x10_2/uL
  KIDNEY_L: 0.9 g
  KIDNEY_R: 0.9 g
  KIDNEY_TOTAL: 1.8 g
  LIVER: 12.3 g
  A/G: 0.8
  ALP: 1414.4 IU/L
  ALT: 69.4 IU/L
  AST: 76.4 IU/L
  BUN: 14.2 mg/dL
  CRE: 0.2 mg/dL
  Ca: 10.9 mg/dL
  Cl: 108.2 meq/L
  DBIL: 0.036 mg/dL
  GLC: 152 mg/dL
  IP: 5.5 mg/dL
  K: 3.6 meq/L
  LDH: 70.2 IU/L
  Na: 143 meq/L
  PL: 197 mg/dL
  RALB: 2.5 g/dL
  TBIL: 0.09 mg/dL
  TC: 113 mg/dL
  TG: 106.4 mg/dL
  TP: 5.5 g/dL
  gamma-GTP: 2.8 IU/L
[6]
  TERMINAL_BW: 225.2 g
  APTT: 15.8 s
  Bas: 0.3%
  Eos: 0.5%
  Fbg: 316.8 mg/dL
  Hb: 13.2 g/dL
  Ht: 38.2%
  Lym: 76.9%
  MCH: 20.2 pg
  MCHC: 34.6%
  MCV: 58.3 fL
  Mono: 3.4%
  Neu: 18.2%
  PT: 11.6 s
  Plat: 176.3 x10_4/uL
  RBC: 655.8 x10_4/ul
  Ret: 4.1%
  WBC: 146.4 x10_2/uL
  KIDNEY_L: 0.9 g
  KIDNEY_R: 0.9 g
  KIDNEY_TOTAL: 1.8 g
  LIVER: 12.6 g
  A/G: 0.8
  ALP: 797 IU/L
  ALT: 44.8 IU/L
  AST: 61.2 IU/L
  BUN: 17 mg/dL
  CRE: 0.2 mg/dL
  Ca: 11.5 mg/dL
  Cl: 105.4 meq/L
  DBIL: 0.032 mg/dL
  GLC: 157 mg/dL
  IP: 7.7 mg/dL
  K: 3.4 meq/L
  LDH: 62.8 IU/L
  Na: 143.8 meq/L
  PL: 180 mg/dL
  RALB: 2.7 g/dL
  TBIL: 0.066 mg/dL
  TC: 102.6 mg/dL
  TG: 97.2 mg/dL
  TP: 6.1 g/dL
  gamma-GTP: 2.4 IU/L
[7]
  TERMINAL_BW: 262.1 g
  APTT: 18.4 s
  Bas: 0.2%
  Eos: 0.6%
  Fbg: 295.6 mg/dL
  Hb: 13.6 g/dL
  Ht: 39.4%
  Lym: 71.9%
  MCH: 19.7 pg
  MCHC: 34.6%
  MCV: 56.9 fL
  Mono: 2.6%
  Neu: 23.8%
  PT: 12.1 s
  Plat: 130.9 x10_4/uL
  RBC: 693.8 x10_4/ul
  Ret: 3.8%
  WBC: 103.7 x10_2/uL
  KIDNEY_L: 1 g
  KIDNEY_R: 1 g
  KIDNEY_TOTAL: 2 g
  LIVER: 15.3 g
  A/G: 0.8
  ALP: 1011.2 IU/L
  ALT: 39.4 IU/L
  AST: 59.2 IU/L
  BUN: 18.4 mg/dL
  CRE: 0.2 mg/dL
  Ca: 11.2 mg/dL
  Cl: 105.6 meq/L
  DBIL: 0.026 mg/dL
  GLC: 159.8 mg/dL
  IP: 6.2 mg/dL
  K: 3.4 meq/L
  LDH: 43.6 IU/L
  Na: 144.8 meq/L
  PL: 204.4 mg/dL
  RALB: 2.8 g/dL
  TBIL: 0.062 mg/dL
  TC: 108 mg/dL
  TG: 153.6 mg/dL
  TP: 6.2 g/dL
  gamma-GTP: 3 IU/L
[8]
  TERMINAL_BW: 342.7 g
  APTT: 22.8 s
  Bas: 0.4%
  Eos: 0.7%
  Fbg: 317.2 mg/dL
  Hb: 14.7 g/dL
  Ht: 41.8%
  Lym: 75.1%
  MCH: 19 pg
  MCHC: 35.3%
  MCV: 53.8 fL
  Mono: 2.1%
  Neu: 21%
  PT: 12.5 s
  Plat: 129.2 x10_4/uL
  RBC: 778.2 x10_4/ul
  Ret: 2.2%
  WBC: 110.2 x10_2/uL
  KIDNEY_L: 1.2 g
  KIDNEY_R: 1.2 g
  KIDNEY_TOTAL: 2.4 g
  LIVER: 19.6 g
  A/G: 0.7
  ALP: 696 IU/L
  ALT: 36.6 IU/L
  AST: 58 IU/L
  BUN: 19.8 mg/dL
  CRE: 0.2 mg/dL
  Ca: 11.3 mg/dL
  Cl: 104.8 meq/L
  DBIL: 0.022 mg/dL
  GLC: 174.8 mg/dL
  IP: 5.6 mg/dL
  K: 3.5 meq/L
  LDH: 58.2 IU/L
  Na: 145.8 meq/L
  PL: 198.8 mg/dL
  RALB: 2.8 g/dL
  TBIL: 0.068 mg/dL
  TC: 109 mg/dL
  TG: 121 mg/dL
  TP: 6.6 g/dL
  gamma-GTP: 2.6 IU/L
